Laboratory results: paper PMC8426238, “Synthesis and preclinical evaluation of [^11C]MTP38 as a novel PET ligand for phosphodiesterase 7 in the brain” (European Journal of Nuclear Medicine and Molecular Imaging, 2021)

What was measured:
Dopamine D2S = molecular target: T1, Dopamine D2S (Homo sapiens, UniProt P14416); experiment: off-target screen panel; type: binding; conditions: Human recombinant, [^3H]Spiperone
T1 construct: purchased Eurofins Panlabs Discovery Services (Taiwan)

Calcium Channel N-Type = molecular target: T2, Calcium Channel N-Type (Rattus norvegicus, UniProt Q02294); experiment: off-target screen panel; type: binding; conditions: read-out: Inhibition (%) at 1 μM
T2 construct: purchased Eurofins Panlabs Discovery Services (Taiwan)

Cannabinoid CB1 = molecular target: T3, Cannabinoid CB1 (Homo sapiens, UniProt P21554); experiment: off-target screen panel; type: binding; conditions: Human recombinant, [^3H]SR141716A
T3 construct: purchased Eurofins Panlabs Discovery Services (Taiwan)

Adrenergic α1B = molecular target: T4, Adrenergic α1B (Rattus norvegicus, UniProt P15823); experiment: off-target screen panel; type: binding; conditions: Rat liver, [^3H]Prazosin
T4 construct: purchased Eurofins Panlabs Discovery Services (Taiwan)

PDE7 [1] = experiment: In vitro autoradiography of monkey brain sections with [^11C]MTP38; type: binding, rhesus monkeys; conditions: [^11C]MTP38 2 nM, unlabeled MTP38 10 μM
Experimental: In vitro autoradiography was performed using 20-μm-thick fresh-frozen brain sections derived from Sprague-Dawley rats and rhesus monkeys. The sections were preincubated for 10 min in 50 mM Tris-HCl buffer (pH 7.4) at room temperature. These samples were then incubated for 60 min at room temperature in fresh buffer containing [^11C]MTP38 (2 nM) with or without unlabeled MTP38 (10 μM), MTP-X (4 μM), or MT-3014 (40 nM). The concentrations of MTP-X and MT-3014 were more than 400-fold of reported IC50 values of these agents. After the incubation, the brain sections were immersed twice in cold buffer for 3 min, dipped in cold distilled water for 10 s, and dried with warm airflow. Then the sections were contacted with imaging plates (BAS-MS2025, Fujifilm, Tokyo, Japan) for 60 min. The imaging plates were scanned with an imaging plate reader (BAS5000, Fujifilm, Tokyo, Japan), and the images were analyzed with the MultiGuage software (ver. 3.0, Fujifilm, Tokyo, Japan).

PDE7 [2] = experiment: PET imaging in monkeys with [^11C]MTP38; type: in vivo, rhesus monkeys; conditions: after unlabeled MTP38 iv bolus 0.075 mg/kg + infusion 0.3 mg/kg/h
Experimental: Each monkey underwent multiple PET scans with intervals longer than 2 weeks. The monkeys were given an intramuscular injection of 0.04 mg/kg of atropine sulfate at 1.5 h before radioligand injection. They were subsequently anesthetized with an intramuscular injection of ketamine (5 mg/kg) and xylazine (0.5 mg/kg), intubated, and kept anesthetized with 1–2% isoflurane. Heart rate, electrocardiogram, body temperature, blood oxygen saturation level, and end-tidal CO2 were monitored during the PET scan. The monkeys were placed on a bed in a supine position, and the head was fixed at the center of the field of view of a microPET scanner Focus220. A transmission scan was performed for about 20 min using a ^68Ge-^68Ga point source. A 90-min list-mode data acquisition was started simultaneously with intravenous administration of [^11C]MTP38 via a saphenous vein cannula. All list-mode data were sorted into 3D sinograms, which were then Fourier-rebinned into 2D sinograms (frames: 10 s × 6, 30 s × 8, 1 min × 5, 2 min × 10, and 5 min × 12). The images were corrected for attenuation and reconstructed with a filtered back-projection algorithm using a Hanning filter with a cut-off at the Nyquist frequency (0.5 mm^−1).
Along with baseline scans, we carried out blocking PET experiments according to the following pretreatment protocols: (1) unlabeled MTP38 was administered as an intravenous bolus (0.075 mg/kg) at 1 h before radioligand injection followed by continuous infusion at a rate of 0.3 mg/kg/h until the end of the PET scan, and (2) MTP-X (0.3–30 mg/kg) was administered orally at 2 or 6 h before radioligand injection.
PET scans for monkeys at baseline and following pretreatment with unlabeled MTP38, and 3, 10, 30 mg/kg of MTP-X were performed along with arterial blood sampling to obtain a metabolite-corrected input function. In total, 22 arterial blood samples were collected manually with heparinized syringes via a saphenous artery contralateral to the radioligand injection. Sampling was performed at 10, 20, 30, 40, 50, 60, 75, 90, 105, 120, 150, 180, and 210 s and at 4, 5, 10, 20, 30, 45, 60, 75, and 90 min after radioligand injection. Blood samples were then placed on ice and divided into two aliquots, one of which was centrifuged with a refrigerated centrifuge (15,000×g, 3 min, 4 °C) to obtain plasma.
PET images were co-registered onto the individual MR images. ROIs were placed on the prefrontal and medial frontal cortices, hippocampus, amygdala, striatum (caudate + putamen), nucleus accumbens, thalamus, cerebellum (gray matter), and brainstem. TACs in the baseline and blockade experiments were generated for each ROI.
Regional TACs were examined by several analytical methods to calculate the regional total distribution volume (VT), which represents the sum of non-specific and specific radioligand binding. Compartment model (1- or 2-tissue) and Logan’s graphical analyses were employed for describing the radioligand kinetics in the brain. The fractional blood volume was fixed at 0.05. For compartment model analyses, an optimal model was chosen on the basis of Akaike’s information criterion (AIC) and model selection criterion (MSC). For graphical analyses, an equilibration time t* was determined so that by the maximum error from the regression within the linear segment was considered to be 10% for each TAC. Time stability of VT was investigated by truncating the data duration stepwise from 90 min to 30 min. The VT values with or without pretreatment with a blocker were then compared. We also validated the use of the cerebellum as a reference tissue by this comparison, in addition to the autoradiographic findings, in monkey brain slices. The non-displaceable binding potential (BPND) was calculated by the original multilinear reference tissue model (MRTMO). t* was determined in the same manner as Logan’s graphical analysis. […]

Purinergic P2Y = experiment: off-target screen panel; type: binding; conditions: Rat brain, [^35S]ATP-αS
Adenosine A2A = molecular target: T5, Adenosine A2A (Homo sapiens, UniProt P29274); experiment: off-target screen panel; type: binding; conditions: Human recombinant, [^3H]CGS-21680
T5 construct: purchased Eurofins Panlabs Discovery Services (Taiwan)
T5 sequence (P29274 whole entry): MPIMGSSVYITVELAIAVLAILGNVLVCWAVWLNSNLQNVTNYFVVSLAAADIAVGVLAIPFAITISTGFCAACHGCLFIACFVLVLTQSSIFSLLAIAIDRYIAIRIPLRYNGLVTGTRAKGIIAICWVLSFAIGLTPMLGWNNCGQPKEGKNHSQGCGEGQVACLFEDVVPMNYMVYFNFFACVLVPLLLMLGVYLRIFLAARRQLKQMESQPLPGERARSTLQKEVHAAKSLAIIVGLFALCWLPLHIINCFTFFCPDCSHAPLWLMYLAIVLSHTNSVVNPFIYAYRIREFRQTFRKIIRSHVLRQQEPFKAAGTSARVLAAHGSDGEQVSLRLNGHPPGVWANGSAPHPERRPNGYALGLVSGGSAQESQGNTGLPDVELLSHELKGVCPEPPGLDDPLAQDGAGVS

T3 sequence (P21554 whole entry): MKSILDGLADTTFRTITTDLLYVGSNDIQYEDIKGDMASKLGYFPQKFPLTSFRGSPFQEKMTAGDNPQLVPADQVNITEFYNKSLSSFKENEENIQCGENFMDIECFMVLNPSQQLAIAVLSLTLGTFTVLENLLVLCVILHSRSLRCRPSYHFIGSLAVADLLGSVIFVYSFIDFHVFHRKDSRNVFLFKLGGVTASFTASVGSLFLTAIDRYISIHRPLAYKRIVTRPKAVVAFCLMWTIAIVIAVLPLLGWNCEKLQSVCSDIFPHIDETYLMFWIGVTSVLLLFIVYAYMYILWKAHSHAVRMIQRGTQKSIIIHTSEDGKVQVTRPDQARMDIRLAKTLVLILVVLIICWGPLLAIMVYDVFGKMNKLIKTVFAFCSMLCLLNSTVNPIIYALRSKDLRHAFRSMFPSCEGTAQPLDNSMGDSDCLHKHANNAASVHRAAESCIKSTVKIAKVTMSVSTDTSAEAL
T1 sequence (P14416 1-414 isoform P14416-2): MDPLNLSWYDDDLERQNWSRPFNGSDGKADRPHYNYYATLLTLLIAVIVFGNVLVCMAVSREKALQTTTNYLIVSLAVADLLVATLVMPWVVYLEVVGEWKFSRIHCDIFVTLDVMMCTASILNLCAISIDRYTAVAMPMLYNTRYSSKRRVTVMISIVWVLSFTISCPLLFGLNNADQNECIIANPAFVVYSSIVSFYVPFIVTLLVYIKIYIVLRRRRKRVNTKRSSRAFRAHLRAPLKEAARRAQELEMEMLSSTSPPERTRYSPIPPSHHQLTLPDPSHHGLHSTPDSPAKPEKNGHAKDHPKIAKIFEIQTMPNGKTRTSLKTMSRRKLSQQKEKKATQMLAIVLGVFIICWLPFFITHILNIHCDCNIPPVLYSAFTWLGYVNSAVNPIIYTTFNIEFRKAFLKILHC
T2 sequence (Q02294 whole entry): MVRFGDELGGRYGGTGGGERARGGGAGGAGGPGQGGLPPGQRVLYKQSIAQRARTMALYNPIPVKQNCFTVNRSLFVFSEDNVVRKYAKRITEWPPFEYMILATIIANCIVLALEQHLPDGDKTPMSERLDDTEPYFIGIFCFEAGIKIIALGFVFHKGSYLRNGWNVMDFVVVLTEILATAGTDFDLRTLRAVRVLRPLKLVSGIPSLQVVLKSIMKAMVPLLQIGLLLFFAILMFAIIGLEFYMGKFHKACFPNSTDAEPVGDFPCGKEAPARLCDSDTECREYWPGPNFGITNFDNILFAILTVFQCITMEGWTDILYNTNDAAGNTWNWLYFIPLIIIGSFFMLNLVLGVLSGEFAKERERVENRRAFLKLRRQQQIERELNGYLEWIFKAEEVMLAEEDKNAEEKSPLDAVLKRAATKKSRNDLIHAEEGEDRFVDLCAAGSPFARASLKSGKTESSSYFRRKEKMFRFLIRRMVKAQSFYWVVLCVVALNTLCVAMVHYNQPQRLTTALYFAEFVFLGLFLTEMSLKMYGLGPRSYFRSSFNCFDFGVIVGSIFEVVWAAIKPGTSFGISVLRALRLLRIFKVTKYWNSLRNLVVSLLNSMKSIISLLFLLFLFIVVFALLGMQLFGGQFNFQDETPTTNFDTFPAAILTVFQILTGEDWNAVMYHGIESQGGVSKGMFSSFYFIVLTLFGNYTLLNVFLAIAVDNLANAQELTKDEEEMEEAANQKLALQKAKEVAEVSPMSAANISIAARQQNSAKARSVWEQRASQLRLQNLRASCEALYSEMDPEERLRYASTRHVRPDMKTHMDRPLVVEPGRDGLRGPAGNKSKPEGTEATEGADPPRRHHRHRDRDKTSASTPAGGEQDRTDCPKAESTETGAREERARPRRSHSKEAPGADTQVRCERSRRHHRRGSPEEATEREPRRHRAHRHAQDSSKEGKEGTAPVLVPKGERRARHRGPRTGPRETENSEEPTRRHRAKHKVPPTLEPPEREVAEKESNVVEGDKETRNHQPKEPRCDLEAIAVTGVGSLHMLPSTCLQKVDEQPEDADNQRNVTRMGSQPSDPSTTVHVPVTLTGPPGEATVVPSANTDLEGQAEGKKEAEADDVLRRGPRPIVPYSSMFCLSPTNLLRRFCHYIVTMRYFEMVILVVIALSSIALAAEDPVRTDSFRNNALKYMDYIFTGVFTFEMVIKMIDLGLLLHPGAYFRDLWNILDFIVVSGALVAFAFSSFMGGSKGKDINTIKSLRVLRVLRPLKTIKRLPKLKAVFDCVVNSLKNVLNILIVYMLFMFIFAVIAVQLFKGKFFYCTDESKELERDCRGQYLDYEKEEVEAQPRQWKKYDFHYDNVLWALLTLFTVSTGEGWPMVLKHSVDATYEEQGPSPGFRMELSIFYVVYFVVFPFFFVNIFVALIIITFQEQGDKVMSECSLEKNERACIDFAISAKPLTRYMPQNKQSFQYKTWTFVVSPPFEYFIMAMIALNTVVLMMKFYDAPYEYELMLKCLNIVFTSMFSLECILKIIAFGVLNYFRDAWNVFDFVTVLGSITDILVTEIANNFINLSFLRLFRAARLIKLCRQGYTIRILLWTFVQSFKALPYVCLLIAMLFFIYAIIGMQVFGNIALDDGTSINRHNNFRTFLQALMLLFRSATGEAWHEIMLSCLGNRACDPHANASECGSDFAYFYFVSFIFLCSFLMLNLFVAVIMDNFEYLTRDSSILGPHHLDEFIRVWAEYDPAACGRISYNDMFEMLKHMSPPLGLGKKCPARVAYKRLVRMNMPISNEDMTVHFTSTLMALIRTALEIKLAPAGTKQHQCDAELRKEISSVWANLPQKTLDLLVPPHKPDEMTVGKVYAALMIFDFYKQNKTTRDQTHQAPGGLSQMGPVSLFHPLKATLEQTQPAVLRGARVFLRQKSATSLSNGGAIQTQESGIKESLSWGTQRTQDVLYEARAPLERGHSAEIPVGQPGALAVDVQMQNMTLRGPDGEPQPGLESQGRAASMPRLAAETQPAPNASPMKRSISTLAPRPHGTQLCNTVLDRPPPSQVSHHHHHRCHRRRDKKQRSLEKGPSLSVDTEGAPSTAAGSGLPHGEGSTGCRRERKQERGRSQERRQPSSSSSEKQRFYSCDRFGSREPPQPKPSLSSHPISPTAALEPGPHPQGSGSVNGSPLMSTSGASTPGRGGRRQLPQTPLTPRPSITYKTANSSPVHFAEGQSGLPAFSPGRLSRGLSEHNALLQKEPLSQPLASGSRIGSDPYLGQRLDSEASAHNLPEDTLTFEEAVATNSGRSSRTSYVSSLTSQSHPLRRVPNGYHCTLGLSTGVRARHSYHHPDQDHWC
T4 sequence (P15823 whole entry): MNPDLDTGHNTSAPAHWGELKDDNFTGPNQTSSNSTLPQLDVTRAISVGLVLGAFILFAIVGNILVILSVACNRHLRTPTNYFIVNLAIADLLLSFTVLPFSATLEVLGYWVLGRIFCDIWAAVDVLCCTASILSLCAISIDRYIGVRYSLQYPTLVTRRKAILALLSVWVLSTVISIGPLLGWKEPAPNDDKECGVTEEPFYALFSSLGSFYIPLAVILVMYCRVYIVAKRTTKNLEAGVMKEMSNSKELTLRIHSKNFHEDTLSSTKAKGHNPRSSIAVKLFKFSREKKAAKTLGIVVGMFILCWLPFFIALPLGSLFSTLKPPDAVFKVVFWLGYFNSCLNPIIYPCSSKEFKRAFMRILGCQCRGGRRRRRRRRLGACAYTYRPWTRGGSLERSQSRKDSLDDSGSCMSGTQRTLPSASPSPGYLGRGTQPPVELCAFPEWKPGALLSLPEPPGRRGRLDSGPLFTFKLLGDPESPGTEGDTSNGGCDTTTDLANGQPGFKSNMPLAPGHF

Q: How did the inhibition at 1 µM (Dopamine D2S) turn out when `C[C@@H]1CC[C@H](C)N(c2nnc3c(N)ncc(C#N)n23)C1` (relative stereo) [MTP38, 8-amino-3-(2S*,5R*-dimethyl-1-piperidyl)-[1,2,4]triazolo[4,3-a]pyrazine-5-carbonitrile] was run?
A: The inhibition at 1 µM was 4%.

Q: What about the inhibition at 1 µM (Calcium Channel N-Type) of the same compound?
A: Its inhibition at 1 µM is 1%.

Q: What about the inhibition at 1 µM (Cannabinoid CB1) of the same compound?
A: Its inhibition at 1 µM is -6%.

Q: And the inhibition at 1 µM (Adrenergic α1B)?
A: The inhibition at 1 µM was -3%.

Q: And the “effect of blocker on striatal radioactivity of [^11C]MTP38” value (PDE7 [1])?
A: The value was “reduced the striatal radioactivity”.

Q: What about the “Striatal BPND of [^11C]MTP38” value (PDE7 [2]; monkey #1) of the same compound?
A: The value was 0.157.

Q: And the “Striatal BPND of [^11C]MTP38” value (PDE7 [2]; monkey #2)?
A: The value was 0.017.

Q: What about the “Inhibition (%) at 1 μM” value (Purinergic P2Y) of the same compound?
A: The value was -20%.

Q: And the inhibition at 1 µM (Adenosine A2A)?
A: The inhibition at 1 µM was 4%.
